Tests used:
[1] = rat, in vivo, 220 ug
Description: (§1) The first study was a pilot study evaluating the impact of array size and dose per needle on the PK profile. Approximately 324 μg of GLP-1 was formulated in Form 1 and delivered with a 60 vs a 90-microneedle array (FIG. 25A). […] The second study was a pilot study evaluating˜5 μg per needle formulated in either Form 1 or Form 2 each delivered with a 61-microneedle array.
(§2) A follow up PK study, with more extensive sampling, particularly in the first 48 hours, was carried out next.
(§3) A dose matched sample formulated in Tris buffer delivered by the subcutaneous route was included as a comparator. MAP dose loading and delivery was confirmed by RP-HPLC (FIG. 26A, top panels). […] The inset in FIG. 26A plots the total area under the curve (AUC) which is a measure of the total exposure to drug product for each animal, for each treatment group and serves as an estimate of bioavailability.
(§4) Male Sprague-Dawley rats (n≥5) of approximately 350-450 g and male Göttingen mini-pigs of 25-30 kg (n≥3) are used in pharmacokinetic studies. […] Individual animal plasma concentration-time values are used to calculate plasma concentration-time data for each delivery route and analyzed by noncompartmental pharmacokinetics using standard PK software.

[2] = Rat PK studies (MAP vs subcutaneous), with body weights and application site observations; conditions: rat follow up study; target dose 220 μg
Description: as §1, §2, §3, §4

AUC (bioavailability) [1]: some variation in the AUC
Substance: semaglutide [SQ delivered GLP-1]
weight loss by Day 4 [2]: 10%

Reference: patent US12434040B2, “Applicator for a microneedle array patch delivery system” (VAXESS TECHNOLOGIES, INC., priority 2023, dated 2025)
